The experiment deals with cGMP-specific 3',5'-cyclic phosphodiesterase (Homo sapiens, UniProt O76074). Put plainly: PDE5 Inhibition Assay. As to the method:
Test compounds were supplied as liquid solutions of 10 mM concentration in DMSO. Sildenafil, used as a standard was dissolved in DMSO. […] 0.1 ng of enzyme was used per reaction, and the substrate was 100 nM FAM-cGMP.Assay conditions: A series of dilutions of the test compounds were prepared with 10% DMSO in assay buffer and 5 μl of the dilution was added to a 50 μl reaction so that the final concentration of DMSO is 1% in all of reactions. The enzymatic reactions were conducted at room temperature for 60 minutes in a 50 μl mixture containing PDE assay buffer, 100 nM FAM-cAMP or 100 nM FAM-cGMP, a PDE enzyme, and the test compound. After the enzymatic reaction, 100 μl of a binding solution (1:100 dilution of the binding agent with the binding agent diluent) was added to each reaction and the reaction was performed at room temperature for 60 minutes. […] Fluorescence intensity is converted to fluorescence polarization using the Tecan Magellan6 software. The fluorescence polarization data were analyzed using the computer software, Graphpad Prism. The fluorescence polarization (FPt) in absence of the compound in each data set was defined as 100% activity. In the absence of PDE and the compound, the value of fluorescent polarization (FPb) in each data set was defined as 0% activity. The percent activity in the presence of the compound was calculated according to the following equation: % activity=(FP−FPb)/(FPt−FPb)×100%, where FP=the fluorescence polarization in the presence of the compound.
In turn, `COc1cc(Nc2c3c(nc4ccc(C#N)cc24)CCN(C(C)=O)C3)ccc1Cl` [US10899756, Compound T] came in with an IC50 of 425 nM.
In the case of `COc1ccc(CCNc2c3c(nc4ccc(C#N)cc24)CCN(C(C)=O)C3)cc1Cl` [US10899756, Compound W], inhibition was half-maximal at 10.6 nM (IC50).
Take `COc1ccc(C(C)Nc2c3c(nc4ccc(C#N)cc24)CCN(C(C)=O)C3)cc1Cl` (centres undefined) [US10899756, Compound V]: the IC50 turned out to be 26.9 nM.
Regarding `COc1ccc(Nc2c3c(nc4ccc(C#N)cc24)CCN(C(C)=O)C3)cc1Cl` [US10899756, Compound S], the IC50 amounted to 593 nM.

Source of the values: BindingDB's records for patent US10626113 (Columbia University, 2020).
